Measured values published in US7253144B2, “Method for producing by cell-free protein synthesis system using thioredoxin-fused protein expression vector” (Riken, priority 2002, dated 2007).

Key:
[1] = target: thioredoxin-fused β2AR-Gs and liposome complex; assay: Ligand binding saturation experiment with [3H]DHA on reconstituted membrane fraction; design: species or system human; settings: average of three independent experiments; 0 to 25 nM [3H]DHA, 25° C., 60 minutes; read-out: binding constant (Kd value), average
Protocol: Subsequently, PBS was added to dilute the detergent, and 10% β-dodecylmaltoside (Nacalaitesque) was added dropwise to make the final concentration 1%. […] A complex of the reconstituted thioredoxin-fused β2AR-Gs after completion of the dialysis and the liposome was centrifuged for 1 hours at 100,000×g and 4° C., and the resultant precipitation fraction (reconstituted membrane fraction) was suspended in 50 μl of an incubation buffer (75 mM Tris-HCl (pH7.4), 12.5 mM MgCl2, 2 mM EDTA).
The ligand binding saturation experiment was conducted by incubating this reconstituted membrane fraction (complex of thioredoxin-fused β2AR-Gs and liposome) together with 0 to 25 nM tritium-labeled Dihidroalprenolol ([^3H]DHA) in 200 μl as a final volume of the incubation buffer at 25° C. for 60 minutes. A competition experiment was conducted by incubating the reconstituted membrane fraction described above together with 10 nM [^3H]DHA in the presence or absence of 10^−8 to 10^−2 MAlprenolol (Sigma).

[2] = target: T1, human β2AR expressed in an insect cell (Sf9 cell) (Homo sapiens, UniProt P07550); assay: Ligand binding saturation experiment with [3H]DHA, positive control receptor; settings: n=1, read-out: binding constant (Kd value)
T1 construct: expressed in transfected cells; host or cells: Sf9 insect cells
T1 sequence (P07550 whole entry): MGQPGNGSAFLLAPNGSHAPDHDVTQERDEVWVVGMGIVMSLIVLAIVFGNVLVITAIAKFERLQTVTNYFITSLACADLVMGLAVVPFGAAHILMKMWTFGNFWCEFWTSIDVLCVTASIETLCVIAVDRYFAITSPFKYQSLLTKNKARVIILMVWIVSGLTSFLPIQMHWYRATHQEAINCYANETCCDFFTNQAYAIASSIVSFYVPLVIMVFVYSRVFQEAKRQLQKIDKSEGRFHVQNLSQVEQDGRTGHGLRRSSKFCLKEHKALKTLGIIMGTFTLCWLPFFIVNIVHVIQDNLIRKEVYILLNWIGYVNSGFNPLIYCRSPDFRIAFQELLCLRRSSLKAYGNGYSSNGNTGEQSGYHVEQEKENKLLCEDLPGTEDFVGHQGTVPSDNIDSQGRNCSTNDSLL

CCCc1ccccc1OCC(O)CNC(C)C (centres unmarked) [[^3H]DHA, Dihidroalprenolol]
Kd [1]: 5.5 ± 1.1 nM
Kd [2]: 3.9 nM
